Common to all, as to format: functional, organism-based
The subject of one assay is Pseudomonas aeruginosa. Description: Antibacterial activity against Pseudomonas aeruginosa ATCC BAA-427 after 24 hrs by NCCLS method.
Another assay relates to Staphylococcus aureus. Briefly: Antibacterial activity against Staphylococcus aureus ATCC 25923 after 24 hrs by NCCLS method.
A further assay relates to Candida albicans. Briefly: Antifungal activity against Candida albicans after 48 hrs by microbroth dilution technique.
The subject of another assay is Cryptococcus neoformans. Briefly: Antifungal activity against Cryptococcus neoformans after 72 hrs by microbroth dilution technique. (In general: In broth dilution the organism is exposed to a series of concentrations in liquid medium.)
For the next assay, the system named is Sporothrix schenckii. Description: Antifungal activity against Sporothrix schenckii after 72 hrs by microbroth dilution technique.
The test system of assay [1] is Trichophyton mentagrophytes. Description: Antifungal activity against Trichophyton mentagrophytes after 96 hrs by microbroth dilution technique.
Another assay concerns Aspergillus fumigatus. Briefly: Antifungal activity against Aspergillus fumigatus AF-27 after 72 hrs by microbroth dilution technique. Particulars: AF-27, 72 h.
The next assay relates to Candida parapsilosis. Description: Antifungal activity against Candida parapsilosis ATCC 22019 after 48 hrs by microbroth dilution technique. Particulars: Lodderomyces parapsilosis, ATCC 22019, 48 h.
In another assay the test system is Escherichia coli. Briefly: Antibacterial activity against Escherichia coli ATCC 9637 after 24 hrs by NCCLS method.
The test system of the next assay is Klebsiella pneumoniae. Description: Antibacterial activity against Klebsiella pneumoniae ATCC 27736 after 24 hrs by NCCLS method.
Where [2] appears, read: Pseudomonas aeruginosa, ATCC BAA-427, 24 h.
Setting [3] is: Escherichia coli, ATCC 9637, 24 h.
Where [4] appears, read: Klebsiella pneumoniae, ATCC 27736, 24 h.
Where [5] appears, read: Klebsiella pneumoniae, ATCC 27736, 24 h, read-out: IC50.
[6] abbreviates: Pseudomonas aeruginosa, ATCC BAA-427, 24 h, read-out: IC50.
[7] abbreviates: Escherichia coli, ATCC 9637, 24 h, read-out: IC50.

≈ marks a conversion by molar mass, not a printed value. Bounds are passed on as bounds.

What is called MIC is the smallest concentration in the dilution series that meets the test's criterion for growth inhibition. Read a high MIC as a less susceptible organism. As for `COC(=O)CC[C@@H](C)[C@H]1CC[C@H]2[C@@H]3[C@H](O)C[C@@H]4C[C@](O)(CN=[N+]=[N-])CC[C@]4(C)[C@H]3C[C@H](O)[C@]12C`, the MIC against Pseudomonas aeruginosa (setting [2]) was over 50 µg/mL; with Staphylococcus aureus (ATCC 25923, 24 h), over 50 µg/mL; against Candida albicans, over 50 µg/mL; in the assay on Cryptococcus neoformans it was over 50 µg/mL; against Sporothrix schenckii, over 50 µg/mL; in [1], over 50 µg/mL. Further, the MIC against Aspergillus fumigatus, against Candida parapsilosis and against Escherichia coli (setting [3]) was over 50 µg/mL throughout.

Consider `COC(=O)CC[C@@H](C)[C@H]1CC[C@H]2[C@@H]3CC[C@@H]4C[C@H](O)CC[C@]4(C)[C@H]3C[C@H](O)[C@]12C` [METHYL DEOXYCHOLATE], for which the MIC in the assay with Pseudomonas aeruginosa (setting [2]) is over 50 µg/mL; in the assay with Staphylococcus aureus (ATCC 25923, 24 h), over 50 µg/mL; against Candida albicans, over 50 µg/mL; against Cryptococcus neoformans it was over 50 µg/mL; against Sporothrix schenckii, over 50 µg/mL; in assay [1], over 50 µg/mL. Further, the MIC in the assay on Aspergillus fumigatus, against Candida parapsilosis and against Escherichia coli (setting [3]) was over 50 µg/mL each time.

The term IC50 denotes the concentration that gives 50% inhibition. `COC(=O)CC[C@@H](C)[C@H]1CC[C@H]2[C@@H]3CC[C@@H]4C[C@](O)(CNCCN)CC[C@]4(C)[C@H]3C[C@H](O)[C@]12C`: the IC50 entry in the assay with Pseudomonas aeruginosa was “Not Active”; in the assay on Staphylococcus aureus (ATCC 25923, 24 h), 5.14 µg/mL (≈ 10.7 µM); with Klebsiella pneumoniae (setting [5]) it was 5.21 µg/mL (≈ 10.9 µM); in the assay on Candida albicans it was 25 µg/mL (≈ 52.3 µM); in the assay with Cryptococcus neoformans, 17.2 µg/mL (≈ 36 µM); in the assay on Sporothrix schenckii it was 3.36 µg/mL (≈ 7.02 µM). The IC50 in assay [1] is 6.25 µg/mL (≈ 13.1 µM); in the assay with Aspergillus fumigatus it was 8.14 µg/mL (≈ 17 µM); in the assay on Candida parapsilosis it was 18.4 µg/mL (≈ 38.4 µM); in the assay with Escherichia coli, “Not Active”. Moreover, the MIC with Pseudomonas aeruginosa (setting [2]) was 50 µg/mL (≈ 104 µM); against Staphylococcus aureus (ATCC 25923, 24 h), 6.25 µg/mL (≈ 13.1 µM); against Klebsiella pneumoniae (setting [4]) it was 6.25 µg/mL (≈ 13.1 µM); against Candida albicans it was over 50 µg/mL; with Cryptococcus neoformans, 25 µg/mL (≈ 52.2 µM); in the assay with Sporothrix schenckii, 12.5 µg/mL (≈ 26.1 µM). Further, the MIC in [1] is 6.25 µg/mL (≈ 13.1 µM); in the assay on Aspergillus fumigatus, 12.5 µg/mL (≈ 26.1 µM); with Candida parapsilosis, 25 µg/mL (≈ 52.2 µM); in the assay with Escherichia coli (setting [3]), 50 µg/mL (≈ 104 µM).

As for `COC(=O)CC[C@@H](C)[C@H]1CC[C@H]2[C@@H]3CC[C@@H]4C[C@](O)(CN=[N+]=[N-])CC[C@]4(C)[C@H]3C[C@H](O)[C@]12C`, the MIC against Pseudomonas aeruginosa (setting [2]) is over 50 µg/mL; against Staphylococcus aureus (ATCC 25923, 24 h), over 50 µg/mL; in the assay with Candida albicans it was over 50 µg/mL; in the assay on Cryptococcus neoformans, over 50 µg/mL; in the assay on Sporothrix schenckii, over 50 µg/mL; in [1], over 50 µg/mL. Further, the MIC in the assay with Aspergillus fumigatus, in the assay with Candida parapsilosis and against Escherichia coli (setting [3]) was over 50 µg/mL throughout.

As to `OC(Cn1cncn1)(Cn1cncn1)c1ccc(F)cc1F` [FLUCONAZOLE], the MIC against Candida albicans worked out at 0.5 µg/mL (≈ 1.63 µM); with Cryptococcus neoformans it was 1.9 µg/mL (≈ 6.2 µM); against Sporothrix schenckii, 2 µg/mL (≈ 6.53 µM); in assay [1] it was 1 µg/mL (≈ 3.27 µM); against Aspergillus fumigatus it was 2 µg/mL (≈ 6.53 µM); against Candida parapsilosis it was 1 µg/mL (≈ 3.27 µM).

As to `COC(=O)CC[C@@H](C)[C@H]1CC[C@H]2[C@@H]3[C@H](O)C[C@@H]4C[C@H](O)CC[C@]4(C)[C@H]3C[C@H](O)[C@]12C` [CHOLIC ACID, METHYL ESTER], the MIC with Pseudomonas aeruginosa (setting [2]) is over 50 µg/mL; in the assay with Staphylococcus aureus (ATCC 25923, 24 h), over 50 µg/mL; against Candida albicans it was over 50 µg/mL; against Cryptococcus neoformans it was over 50 µg/mL; in the assay with Sporothrix schenckii it was over 50 µg/mL; in assay [1], over 50 µg/mL. For the same compound, the MIC in the assay with Aspergillus fumigatus, with Candida parapsilosis and with Escherichia coli (setting [3]) was over 50 µg/mL each time.

Regarding `COC(=O)CC[C@@H](C)[C@H]1CC[C@H]2[C@@H]3[C@H](O)C[C@@H]4C[C@](O)(CN)CC[C@]4(C)[C@H]3C[C@H](O)[C@]12C`, the MIC against Pseudomonas aeruginosa (setting [2]) was over 50 µg/mL; with Staphylococcus aureus (ATCC 25923, 24 h) it was 25 µg/mL (≈ 55.4 µM); against Klebsiella pneumoniae (setting [4]), 25 µg/mL (≈ 55.4 µM); against Candida albicans, 50 µg/mL (≈ 111 µM); with Cryptococcus neoformans it was over 50 µg/mL; in the assay with Sporothrix schenckii, 50 µg/mL (≈ 111 µM). The MIC was 25 µg/mL (≈ 55.4 µM) in [1], over 50 µg/mL with Aspergillus fumigatus, over 50 µg/mL against Candida parapsilosis and over 50 µg/mL in the assay with Escherichia coli (setting [3]). In addition, the IC50 was over 50 µg/mL in the assay with Pseudomonas aeruginosa (setting [6]); 18.4 µg/mL (≈ 40.8 µM) in the assay on Staphylococcus aureus (ATCC 25923, 24 h); 18.4 µg/mL (≈ 40.8 µM) in the assay on Klebsiella pneumoniae (setting [5]); over 50 µg/mL in the assay on Candida albicans; over 50 µg/mL in the assay with Cryptococcus neoformans; 50 µg/mL (≈ 111 µM) in the assay with Sporothrix schenckii. Besides, the IC50 in [1] was 21.4 µg/mL (≈ 47.4 µM); in the assay with Aspergillus fumigatus it was over 50 µg/mL; in the assay with Candida parapsilosis, over 50 µg/mL; in the assay with Escherichia coli (setting [7]), over 50 µg/mL.

On to GENTAMICIN, for which the MIC against Pseudomonas aeruginosa is 25 µg/mL; with Staphylococcus aureus, 6.25 µg/mL; in the assay on Klebsiella pneumoniae, 0.78 µg/mL; with Escherichia coli, 0.18 µg/mL.

For the compound `COC(=O)CC[C@@H](C)[C@H]1CC[C@H]2[C@@H]3CC[C@@H]4C[C@](O)(CN)CC[C@]4(C)[C@H]3C[C@H](O)[C@]12C`, the MIC was over 50 µg/mL against Pseudomonas aeruginosa (setting [2]); 25 µg/mL (≈ 57.4 µM) in the assay with Staphylococcus aureus (ATCC 25923, 24 h); 50 µg/mL (≈ 115 µM) in the assay on Klebsiella pneumoniae (setting [4]); 50 µg/mL (≈ 115 µM) in the assay on Candida albicans; 50 µg/mL (≈ 115 µM) against Cryptococcus neoformans; 25 µg/mL (≈ 57.4 µM) in the assay with Sporothrix schenckii. For the same compound, the MIC in [1] is 25 µg/mL (≈ 57.4 µM); against Aspergillus fumigatus, 50 µg/mL (≈ 115 µM); in the assay on Candida parapsilosis it was over 50 µg/mL; in the assay with Escherichia coli (setting [3]) it was over 50 µg/mL. For the same compound, the IC50 with Pseudomonas aeruginosa (setting [6]) is over 50 µg/mL; with Staphylococcus aureus (ATCC 25923, 24 h), 14.6 µg/mL (≈ 33.4 µM); in the assay on Klebsiella pneumoniae it was “Not Active”; in the assay with Candida albicans, 50 µg/mL (≈ 115 µM); in the assay on Cryptococcus neoformans it was 50 µg/mL (≈ 115 µM); with Sporothrix schenckii, 12.6 µg/mL (≈ 29 µM). Also, the IC50 was 24.9 µg/mL (≈ 57.1 µM) in assay [1], 50 µg/mL (≈ 115 µM) in the assay with Aspergillus fumigatus, over 50 µg/mL in the assay on Candida parapsilosis and over 50 µg/mL in the assay on Escherichia coli (setting [7]).

Take `COC(=O)CC[C@@H](C)[C@H]1CC[C@H]2[C@@H]3[C@H](O)C[C@@H]4C[C@](O)(CNCCN)CC[C@]4(C)[C@H]3C[C@H](O)[C@]12C`: the IC50 result in the assay on Pseudomonas aeruginosa was “Not Active”; in the assay on Staphylococcus aureus (ATCC 25923, 24 h) it was 4.12 µg/mL (≈ 8.33 µM); with Klebsiella pneumoniae (setting [5]), 4.68 µg/mL (≈ 9.46 µM); in the assay with Candida albicans, 24 µg/mL (≈ 48.6 µM); with Cryptococcus neoformans it was 14.6 µg/mL (≈ 29.4 µM); with Sporothrix schenckii, 18.3 µg/mL (≈ 37 µM). The IC50 in [1] was 6.25 µg/mL (≈ 12.6 µM); with Aspergillus fumigatus, 50 µg/mL (≈ 101 µM); in the assay on Candida parapsilosis, 16.4 µg/mL (≈ 33.2 µM); in the assay on Escherichia coli (setting [7]), 17.2 µg/mL (≈ 34.8 µM). Moreover, the MIC against Pseudomonas aeruginosa (setting [2]) was determined as 50 µg/mL (≈ 101 µM); with Staphylococcus aureus (ATCC 25923, 24 h) it was 6.25 µg/mL (≈ 12.6 µM); with Klebsiella pneumoniae (setting [4]), 6.25 µg/mL (≈ 12.6 µM); against Candida albicans it was 25 µg/mL (≈ 50.5 µM); in the assay with Cryptococcus neoformans, 25 µg/mL (≈ 50.5 µM); against Sporothrix schenckii it was 25 µg/mL (≈ 50.5 µM). In addition, the MIC in assay [1] is 6.25 µg/mL (≈ 12.6 µM); in the assay with Aspergillus fumigatus it was 50 µg/mL (≈ 101 µM); in the assay with Candida parapsilosis it was 25 µg/mL (≈ 50.5 µM); against Escherichia coli (setting [3]) it was 25 µg/mL (≈ 50.5 µM).

The values are drawn from ChEMBL document CHEMBL1154225, “Design and synthesis of bile acid-based amino sterols as antimicrobial agents” (Bioorg Med Chem Lett, 2009).
